According to patent US10787452B2 (Vertex Pharmaceuticals Incorporated, priority 2012, dated 2020):

System: HCT116 colorectal cancer cells
Assay: Cisplatin sensitization assay (96 h cell viability MTS);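 also: compound concentration needed to lower the Cisplatin-alone IC50 by a set fold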
Assay type: cell-based
Settings: 96 h MTS, compound plus Cisplatin
Procedure, shortened: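 Viability is measured with MTS reagent, added after 96 h and developed for 1 h at 37° C. Beforehand, cells receive compound and cisplatin simultaneously in a concentration matrix of 2-fold serial dilutions starting at 10 μM final.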

SMILES	Cisplatin Sensitization Assay
Nc1nn2cc(F)cnc2c1C(=O)Nc1cncc(Cl)c1N1CCC(C(=O)N2CCNCC2)CC1 [I-G-48, 2-amino-N-(5-chloro-4-(4-(piperazine-1-carbonyl)piperidin-1-yl)pyridin-3-yl)-6-fluoropyrazolo[1,5-a]pyrimidine-3-carboxamide]	+++ (Compounds with a Cisplatin sensitization value of <0.02 μM are marked with “+++.”)
CN1CCN(c2cc(Cl)ncc2NC(=O)c2c(N)nn3cc(Cl)cnc23)CC1 [I-N-52, 2-amino-6-chloro-N-(6-chloro-4-(4-methylpiperazin-1-yl)pyridin-3-yl)pyrazolo[1,5-a]pyrimidine-3-carboxamide]	++ (Compounds with a Cisplatin sensitization value >0.02 μM but <0.2 μM are marked with “++.”)
Nc1nn2cc(Cl)cnc2c1C(=O)Nc1cnccc1O[C@H]1C[C@]2(CCN2)C1 [I-O-78, N-(4-((4s,6r)-1-azaspiro[3.3]heptan-6-yloxy)pyridin-3-yl)-2-amino-6-chloropyrazolo[1,5-a]pyrimidine-3-carboxamide]	+ (Compounds with a Cisplatin sensitization value >0.2 μM but <5 μM are marked with “+.”)
COc1cncc(NC(=O)c2c(N)nn3cc(F)cnc23)c1-c1cccnc1 [I-C-82, 2-amino-6-fluoro-N-(5′-methoxy-[3,4′-bipyridin]-3′-yl)pyrazolo[1,5-a]pyrimidine-3-carboxamide]	+++ (Compounds with a Cisplatin sensitization value of <0.02 μM are marked with “+++.”)
Nc1nn2cc(F)cnc2c1C(=O)Nc1cnccc1OC1CCC(C(=O)O)CC1 (stereo not drawn) [I-O-8, 4-((3-(2-amino-6-fluoropyrazolo[1,5-a]pyrimidine-3-carboxamido)pyridin-4-yl)oxy)cyclohexanecarboxylic acid]	+ (Compounds with a Cisplatin sensitization value >0.2 μM but <5 μM are marked with “+.”)
CC(C)N1CCCC1C(=O)N1CCN(c2c(F)cncc2NC(=O)c2c(N)nn3cc(F)cnc23)CC1 (stereo not drawn) [I-N-205, 2-amino-6-fluoro-N-(5-fluoro-4-(4-(1-isopropylpyrrolidine-2-carbonyl)piperazin-1-yl)pyridin-3-yl)pyrazolo[1,5-a]pyrimidine-3-carboxamide]	++ (Compounds with a Cisplatin sensitization value >0.02 μM but <0.2 μM are marked with “++.”)
CN1CCC(Oc2c(Cl)cncc2NC(=O)c2c(N)nn3cc(Cl)cnc23)CC1 [I-O-46, 2-amino-6-chloro-N-(5-chloro-4-((1-methylpiperidin-4-yl)oxy)pyridin-3-yl)pyrazolo[1,5-a]pyrimidine-3-carboxamide]	+ (Compounds with a Cisplatin sensitization value >0.2 μM but <5 μM are marked with “+.”)
CC(C)(C#N)c1cnc2c(C(=O)Nc3cnccc3N3CCN(C4COC4)CC3)c(N)nn2c1 [I-N-142, 2-amino-6-(2-cyanopropan-2-yl)-N-(4-(4-(oxetan-3-yl)piperazin-1-yl)pyridin-3-yl)pyrazolo[1,5-a]pyrimidine-3-carboxamide]	++ (Compounds with a Cisplatin sensitization value >0.02 μM but <0.2 μM are marked with “++.”)
N#CCc1cnc2c(C(=O)Nc3cnccc3OC3CNC3)c(N)nn2c1 [I-O-82, 2-amino-N-(4-(azetidin-3-yloxy)pyridin-3-yl)-6-(cyanomethyl)pyrazolo[1,5-a]pyrimidine-3-carboxamide]	++ (Compounds with a Cisplatin sensitization value >0.02 μM but <0.2 μM are marked with “++.”)
Nc1nn2cc(F)cnc2c1C(=O)Nc1cnccc1CN1CCCC1=O [I-C-76, 2-amino-6-fluoro-N-(4-((2-oxopyrrolidin-1-yl)methyl)pyridin-3-yl)pyrazolo[1,5-a]pyrimidine-3-carboxamide]	+ (Compounds with a Cisplatin sensitization value >0.2 μM but <5 μM are marked with “+.”)
Nc1nn2cc(F)cnc2c1C(=O)Nc1cnccc1-c1cccnc1F [I-C-35, 2-amino-6-fluoro-N-(2-fluoro-[3,4′-bipyridin]-3′-yl)pyrazolo[1,5-a]pyrimidine-3-carboxamide]	+++ (Compounds with a Cisplatin sensitization value of <0.02 μM are marked with “+++.”)
CN1CC(OC2CCN(c3ccncc3NC(=O)c3c(N)nn4cc(F)cnc34)CC2)C1 [I-N-164, 2-amino-6-fluoro-N-(4-(4-((1-methylazetidin-3-yl)oxy)piperidin-1-yl)pyridin-3-yl)pyrazolo[1,5-a]pyrimidine-3-carboxamide]	+++ (Compounds with a Cisplatin sensitization value of <0.02 μM are marked with “+++.”)
CN1CC(N2CCN(C(=O)C3CCN(c4c(F)cncc4NC(=O)c4c(N)nn5cc(F)cnc45)CC3)CC2)C1 [I-G-96, 2-amino-6-fluoro-N-(5-fluoro-4-(4-(4-(1-methylazetidin-3-yl)piperazine-1-carbonyl)piperidin-1-yl)pyridin-3-yl)pyrazolo[1,5-a]pyrimidine-3-carboxamide]	+++ (Compounds with a Cisplatin sensitization value of <0.02 μM are marked with “+++.”)
CN1CCOCC1C(=O)N1CCN(c2c(F)cncc2NC(=O)c2c(N)nn3cc(F)cnc23)CC1 (stereo not drawn) [I-N-227, 2-amino-6-fluoro-N-(5-fluoro-4-(4-(4-methylmorpholine-3-carbonyl)piperazin-1-yl)pyridin-3-yl)pyrazolo[1,5-a]pyrimidine-3-carboxamide]	+++ (Compounds with a Cisplatin sensitization value of <0.02 μM are marked with “+++.”)
CN(C)C(=O)C1CCN(c2ccncc2NC(=O)c2c(N)nn3cc(F)cnc23)CC1 [I-G-2, 2-amino-N-(4-(4-(dimethylcarbamoyl)piperidin-1-yl)pyridin-3-yl)-6-fluoropyrazolo[1,5-a]pyrimidine-3-carboxamide]	+++ (Compounds with a Cisplatin sensitization value of <0.02 μM are marked with “+++.”)
C[N+]1([O-])CCc2c(cncc2NC(=O)c2c(N)nn3cc(F)cnc23)C1 (stereo not drawn) [I-C-9, 5-(2-amino-6-fluoropyrazolo[1,5-a]pyrimidine-3-carboxamido)-2-methyl-1,2,3,4-tetrahydro-2,7-naphthyridine 2-oxide]	+ (Compounds with a Cisplatin sensitization value >0.2 μM but <5 μM are marked with “+.”)
Nc1nn2cc(Cl)cnc2c1C(=O)Nc1cnccc1N1CCN2CCC1CC2 [I-N-56, N-(4-(1,4-diazabicyclo[3.2.2]nonan-4-yl)pyridin-3-yl)-2-amino-6-chloropyrazolo[1,5-a]pyrimidine-3-carboxamide]	++ (Compounds with a Cisplatin sensitization value >0.02 μM but <0.2 μM are marked with “++.”)
CN1CCN(C(=O)C2CCN(c3c(F)cncc3NC(=O)c3c(N)nn4cc(F)cnc34)C2)CC1 (stereo not drawn) [I-N-191, 2-amino-6-fluoro-N-(5-fluoro-4-(3-(4-methylpiperazine-1-carbonyl)pyrrolidin-1-yl)pyridin-3-yl)pyrazolo[1,5-a]pyrimidine-3-carboxamide]	+ (Compounds with a Cisplatin sensitization value >0.2 μM but <5 μM are marked with “+.”)
Cc1nn(C)cc1-c1ccncc1NC(=O)c1c(N)nn2cc(F)cnc12 [I-C-63, 2-amino-N-(4-(1,3-dimethyl-1H-pyrazol-4-yl)pyridin-3-yl)-6-fluoropyrazolo[1,5-a]pyrimidine-3-carboxamide]	+++ (Compounds with a Cisplatin sensitization value of <0.02 μM are marked with “+++.”)
Nc1nn2cc(F)cnc2c1C(=O)Nc1cncc(C2CC2)c1N1CCN([C@@H]2CCOC2)CC1 [I-N-119, (R)-2-amino-N-(5-cyclopropyl-4-(4-(tetrahydrofuran-3-yl)piperazin-1-yl)pyridin-3-yl)-6-fluoropyrazolo[1,5-a]pyrimidine-3-carboxamide]	++ (Compounds with a Cisplatin sensitization value >0.02 μM but <0.2 μM are marked with “++.”)
Nc1nn2cc(Cl)cnc2c1C(=O)Nc1cnccc1OC1CCCOC1 (stereo not drawn) [I-O-65, 2-amino-6-chloro-N-(4-((tetrahydro-2H-pyran-3-yl)oxy)pyridin-3-yl)pyrazolo[1,5-a]pyrimidine-3-carboxamide]	+++ (Compounds with a Cisplatin sensitization value of <0.02 μM are marked with “+++.”)
CN1CCN(c2ccncc2NC(=O)c2c(N)nn3cc(Cl)cnc23)CC1(C)C [I-N-53, 2-amino-6-chloro-N-(4-(3,3,4-trimethylpiperazin-1-yl)pyridin-3-yl)pyrazolo[1,5-a]pyrimidine-3-carboxamide]	++ (Compounds with a Cisplatin sensitization value >0.02 μM but <0.2 μM are marked with “++.”)
Nc1nn2cc(F)cnc2c1C(=O)Nc1cnccc1OC1CCN(C2COC2)CC1 [I-O-11, 2-amino-6-fluoro-N-(4-((1-(oxetan-3-yl)piperidin-4-yl)oxy)pyridin-3-yl)pyrazolo[1,5-a]pyrimidine-3-carboxamide]	+++ (Compounds with a Cisplatin sensitization value of <0.02 μM are marked with “+++.”)
CN(C)CCN1CCN(c2ccncc2NC(=O)c2c(N)nn3cc(Cl)cnc23)CC1 [I-N-49, 2-amino-6-chloro-N-(4-(4-(2-(dimethylamino)ethyl)piperazin-1-yl)pyridin-3-yl)pyrazolo[1,5-a]pyrimidine-3-carboxamide]	+++ (Compounds with a Cisplatin sensitization value of <0.02 μM are marked with “+++.”)
Cc1ncnn1-c1ccncc1NC(=O)c1c(N)nn2cc(F)cnc12 [I-N-162, 2-amino-6-fluoro-N-(4-(5-methyl-1H-1,2,4-triazol-1-yl)pyridin-3-yl)pyrazolo[1,5-a]pyrimidine-3-carboxamide]	++ (Compounds with a Cisplatin sensitization value >0.02 μM but <0.2 μM are marked with “++.”)
CN1CCC(Oc2ccncc2NC(=O)c2c(N)nn3cc(Cl)cnc23)CC1 [I-O-64, 2-amino-6-chloro-N-(4-((1-methylpiperidin-4-yl)oxy)pyridin-3-yl)pyrazolo[1,5-a]pyrimidine-3-carboxamide]	+++ (Compounds with a Cisplatin sensitization value of <0.02 μM are marked with “+++.”)
COC1CCN(c2ccncc2NC(=O)c2c(N)nn3cc(F)cnc23)CC1 [I-N-266, 2-amino-6-fluoro-N-(4-(4-methoxypiperidin-1-yl)pyridin-3-yl)pyrazolo[1,5-a]pyrimidine-3-carboxamide]	+++ (Compounds with a Cisplatin sensitization value of <0.02 μM are marked with “+++.”)
